Species: Rattus norvegicus
Experiment: DrugMatrix - Regimen: Daily Repeat
Assay type: toxicity, organism-based, Sprague-Dawley
Set-up: regimen Daily Repeat, gender Male, age 6-8 weeks
Conditions: in vivo, po, route oral GAVAGE, vehicle .5 % CMC; for BASOPHIL / EOSINOPHIL / ERYTHROCYTE COUNT / HEMATOCRIT / HEMOGLOBIN / LEUKOCYTE COUNT / LYMPHOCYTE / MEAN CORPUSCULAR HEMOGLOBIN / MEAN CORPUSCULAR HEMOGLOBIN CONCENTRATION / MEAN CORPUSCULAR VOLUME / MONOCYTE / NEUTROPHIL / PLATELET COUNT: tissue Blood; for ALANINE AMINOTRANSFERASE / ALBUMIN / ALKALINE PHOSPHATASE / ASPARTATE AMINOTRANSFERASE / BLOOD UREA NITROGEN / CHLORIDE / CHOLESTEROL / CREATINE PHOSPHOKINASE / CREATININE / GLUCOSE / PHOSPHORUS / POTASSIUM / SODIUM / TOTAL BILIRUBIN / TOTAL PROTEIN: tissue Plasma
[1] = 0 mg/kg, 72 h, dose level Control, time 3 day
[2] = 0 mg/kg, 120 h, dose level Control, time 5 day
[3] = 0.09 mg/kg, 72 h, dose level Low, time 3 day

CCN1C[C@]2(COC)[C@H](O)C[C@H](OC)[C@@]34[C@@H]5C[C@@]6(O)[C@H](OC(=O)c7ccccc7)[C@@H]5[C@@](OC(C)=O)([C@@H]([C@H](OC)[C@H]23)[C@@H]14)[C@@H](O)[C@@H]6OC [ACONITINE]
BASOPHIL [1]: 0.68% | EOSINOPHIL [1]: 0.46% | ERYTHROCYTE COUNT [1]: 7.15 x10E6/uL | HEMATOCRIT [1]: 45.44% | HEMOGLOBIN [1]: 14.1 G/DL | LEUKOCYTE COUNT [1]: 9.78 x10E3/uL | LYMPHOCYTE [1]: 84.44% | MEAN CORPUSCULAR HEMOGLOBIN [1]: 19.72 pg | MEAN CORPUSCULAR HEMOGLOBIN CONCENTRATION [1]: 31 G/DL | MEAN CORPUSCULAR VOLUME [1]: 63.66 fL | MONOCYTE [1]: 2.14% | NEUTROPHIL [1]: 11.16% | PLATELET COUNT [1]: 1378.2 x10E3/uL | ALANINE AMINOTRANSFERASE [1]: 42.33 u/L | ALBUMIN [1]: 3.8 G/DL | ALKALINE PHOSPHATASE [1]: 388.17 u/L | ASPARTATE AMINOTRANSFERASE [1]: 68 u/L | BLOOD UREA NITROGEN [1]: 16.17 mg/dL | CHLORIDE [1]: 96.67 MEQ/L | CHOLESTEROL [1]: 71 mg/dL | CREATINE PHOSPHOKINASE [1]: 156.17 u/L | CREATININE [1]: 0.57 mg/dL | GLUCOSE [1]: 193.67 mg/dL | PHOSPHORUS [1]: 11.43 mg/dL | POTASSIUM [1]: 7 MEQ/L | SODIUM [1]: 140.33 MEQ/L | TOTAL BILIRUBIN [1]: 0.48 mg/dL | TOTAL PROTEIN [1]: 6.8 G/DL | BASOPHIL [2]: 1.47% | EOSINOPHIL [2]: 1% | ERYTHROCYTE COUNT [2]: 7.12 x10E6/uL | HEMATOCRIT [2]: 45.47% | HEMOGLOBIN [2]: 14.1 G/DL | LEUKOCYTE COUNT [2]: 11.38 x10E3/uL | LYMPHOCYTE [2]: 82.57% | MEAN CORPUSCULAR HEMOGLOBIN [2]: 19.82 pg | MEAN CORPUSCULAR HEMOGLOBIN CONCENTRATION [2]: 31.02 G/DL | MEAN CORPUSCULAR VOLUME [2]: 63.88 fL | MONOCYTE [2]: 2.2% | NEUTROPHIL [2]: 11.97% | PLATELET COUNT [2]: 1267 x10E3/uL | ALANINE AMINOTRANSFERASE [2]: 38 u/L | ALBUMIN [2]: 3.72 G/DL | ALKALINE PHOSPHATASE [2]: 391 u/L | ASPARTATE AMINOTRANSFERASE [2]: 65.83 u/L | BLOOD UREA NITROGEN [2]: 14.17 mg/dL | CHLORIDE [2]: 107.67 MEQ/L | CHOLESTEROL [2]: 61 mg/dL | CREATINE PHOSPHOKINASE [2]: 148.33 u/L | CREATININE [2]: 0.57 mg/dL | GLUCOSE [2]: 177.17 mg/dL | PHOSPHORUS [2]: 12.07 mg/dL | POTASSIUM [2]: 7.2 MEQ/L | SODIUM [2]: 151.5 MEQ/L | TOTAL BILIRUBIN [2]: 0.58 mg/dL | TOTAL PROTEIN [2]: 6.72 G/DL | BASOPHIL [3]: 0.43% | EOSINOPHIL [3]: 0.4% | ERYTHROCYTE COUNT [3]: 7.13 x10E6/uL | HEMATOCRIT [3]: 45.67% | HEMOGLOBIN [3]: 14.3 G/DL | LEUKOCYTE COUNT [3]: 11.21 x10E3/uL | LYMPHOCYTE [3]: 84.83% | MEAN CORPUSCULAR HEMOGLOBIN [3]: 20.07 pg | MEAN CORPUSCULAR HEMOGLOBIN CONCENTRATION [3]: 31.3 G/DL | MEAN CORPUSCULAR VOLUME [3]: 64.07 fL | MONOCYTE [3]: 2.23% | NEUTROPHIL [3]: 11.1% | PLATELET COUNT [3]: 1445.33 x10E3/uL | ALANINE AMINOTRANSFERASE [3]: 31.33 u/L | ALBUMIN [3]: 3.93 G/DL | ALKALINE PHOSPHATASE [3]: 342 u/L | ASPARTATE AMINOTRANSFERASE [3]: 61.33 u/L | BLOOD UREA NITROGEN [3]: 14.33 mg/dL | CHLORIDE [3]: 96.67 MEQ/L | CHOLESTEROL [3]: 69.33 mg/dL | CREATINE PHOSPHOKINASE [3]: 136.67 u/L | CREATININE [3]: 0.57 mg/dL | GLUCOSE [3]: 209 mg/dL | PHOSPHORUS [3]: 12.67 mg/dL | POTASSIUM [3]: 6.4 MEQ/L | SODIUM [3]: 140.67 MEQ/L | TOTAL BILIRUBIN [3]: 0.4 mg/dL | TOTAL PROTEIN [3]: 7.1 G/DL

From ChEMBL document CHEMBL3885881, “DrugMatrix”
